Assay results: patent US20030215817A1, “Modulation of gene expression in formation of fatty atherosclerotic lesions” (priority 2003, published 2003)
Where a name gives a salt, the structure may show the parent alone.

System: Rec1_6 (MspI ATCC 176) mRNA
Experiment: quantified RT-PCR, Rec1_6
Assay type: in vivo, rabbit
Settings: for Relative Abundance Rec1_6, 20 pg F: hypercholesterolemic plus lercanidipine racemate, eight weeks, H2 (normocholesterolemic)=1.0
Method: Nineteen of the isolated DST clones were further validated using RT-PCR analyses; the data are presented in FIGS. 6-24 and in Tables 5-23, below. For each DST examined, the optimal annealing temperature and reagent conditions were determined for the corresponding set of primers (see Table 25) based on results from a preliminary experiment. In eight separate reactions, each set of primers was assayed to find the optimal conditions by adjusting the following four parameters: primer concentration, dNTP concentration, MgCl2 concentration, and number of Taq polymerase units. Once optimal conditions were determined, each DST was run in duplicate multiple simultaneous reactions which usually included at least four dilutions of template (cDNA library), plus control reactions lacking template, and six sequential data points for numbers of cycles. Reactions were performed using “Hot Start” PCR with the Clontech TaqStart antibody system (Cat. #5400-1). Each reaction contained 1 ml of the cDNA library dilution as template, determined amounts of AmpliTaq DNA polymerase (cat. #N808-0156), MgCl2, dNTPs (GibcoBRL cat. #10297-018), primer, and Clontech TaqStart Antibody in a 20 ml final reaction volume using 10×Taq buffer II (without MgCl2). Typically, a master mix containing all components except the template was prepared and aliquoted. Various templates were then added to these master mix samples and 20 ml volumes were subsequently dispensed into individual reaction tubes. At various times during the PCR run, tubes were removed sequentially on a predetermined schedule in order to quantitate expression of the target DST over a “window” of cycle times. After amplification, the samples were quantified via fluorimetry. PCR was performed at annealing temperatures that were five degrees above the average melting temperature of each primer pair. For primers greater than 10 bases (in a 0.05M salt solution), melting temperature was calculated using the following formula: Tm=59.9+41[% GC]−[675/Primer Length], where %GC is the decimal value. Following determination of the average melting temperature of the primer pair, the annealing temperature was determined by adding five degrees to the average melting temperature. PCR was performed using the following program: 1) 95 degrees Celsius, 3 minutes; 2) 95 degrees Celsius, 30 seconds; 3) TM+5 degrees Celsius, 30 seconds; 4) 72 degrees Celsius, for a time dependent on target length at 16 bp/second; 5) repeat steps 2-4 33 more cycles; 6) 72 degrees Celsius, 3 minutes; 7) 14 degrees Celsius, forever. Following temperature cycling, 2 ml of the PCR reaction was added to 140 ml of a 1:280 dilution of PicoGreen (Molecular Probes cat. #P-11495 (10×100 ml)) in TE pH 7.5 in a 96-well Costar UV microtiter plate (Fisher cat. #07-200623). The samples were mixed gently for 1.5 minutes and allowed to equilibrate at room temperature in the dark for 15 minutes. The concentration of the PCR products was quantified by fluorimetry using a PerSeptive Biosystems CytoFluor series 4000 multi-well plate reader. Background fluorescence was determined by using duplicate control samples that were cycled with all reaction components except the template. The mean value from these duplicate background control samples was subtracted from the corresponding experimental values prior to analyzing results. The sensitivity of the PicoGreen dsDNA assay is reported to be 250 pg/ml (50 pg dsDNA in a […] assay volume) using a fluorescence microplate reader such as was used in these measurements. […]

SMILES: COC(=O)C1=C(C)NC(C)=C(C(=O)OC(C)(C)CN(C)CCC(c2ccccc2)c2ccccc2)C1c1cccc([N+](=O)[O-])c1 (racemic) [lercanidipine, lercanidipine hydrochloride]
- Relative Abundance Rec1_6, 20 pg F (cycle 24): 3.1
- Relative Abundance Rec1_6, 20 pg F (cycle 26): 2.2
- Relative Abundance Rec1_6, 20 pg F (cycle 28): 2.1
- Relative Abundance Rec1_6, 20 pg F (cycle 30): 1.7
- Relative Abundance Rec1_6, 20 pg F (cycle 32): 1.4
- Relative Abundance Rec1_6, 20 pg F (cycle 34): 1.5
- expression of Rec1_6 at 8 weeks (RT-PCR study), in words (hypercholesterolemic animals receiving lercanidipine racemate): somewhat more elevated
